This is an account of results in patent publication US8604028B2, “Furopyridinyl-substituted 1,4-dihydropyridine derivatives and methods of use thereof” (Bayer Intellectual Property GmbH, priority 2009, dated 2013).

The assay addresses N-terminally His6-tagged recombinant kinase domain of the human c-Met (amino acids 960-1390) (Homo sapiens (Human), UniProt P08581). Nature of the assay: c-Met Receptor Tyrosine Kinase Homogeneous Time-Resolved Fluorescence Assay (Alternative Format). Type of assay: biochemical. As to conditions: c-Met kinase inhibition, HTRF format, ATP 10 μM. The source says: c-Met Receptor Tyrosine Kinase Homogeneous Time-Resolved Fluorescence Assay (Alternative Format):
The N-terminally His6-tagged recombinant kinase domain of the human c-Met (amino acids 960-1390), expressed in insect cells (SF21) and purified by Ni-NTA affinity chromatography and consecutive size exclusion chromatography (Superdex 200), is used. Alternatively, commercially available c-Met (Millipore) can be used. As substrate for the kinase reaction, the biotinylated poly-Glu,Tyr (4:1) copolymer (#61GT0BLC, Cis Biointernational, Marcoule, France) is used.
For the assay, 50 nL of a 100-fold concentrated solution of the test compound in DMSO is pipetted into a black low-volume 384-well microtiter plate (Greiner Bio-One, Frickenhausen, Germany). […]
The resulting mixture is incubated for 1 h at 22° C. to allow the binding of the biotinylated phosphorylated peptide to the streptavidine-XLent and the PT66-Eu-chelate. Subsequently, the amount of phosphorylated substrate is evaluated by measurement of the resonance energy transfer from the PT66-Eu-chelate to the streptavidine-XLent. Therefore, the fluorescence emissions at 620 nm and 665 nm after excitation at 350 nm are measured in an HTRF reader, e.g. Rubystar (BMG Lab-technologies, Offenburg, Germany) or Viewlux (Perkin-Elmer). […]
Background: In TR-FRET formats the signal depends on donor and acceptor labels being close together.

Each structure is given as a SMILES string.

Chain of N-terminally His6-tagged recombinant kinase domain of the human c-Met (amino acids 960-1390) (P08581 960-1390): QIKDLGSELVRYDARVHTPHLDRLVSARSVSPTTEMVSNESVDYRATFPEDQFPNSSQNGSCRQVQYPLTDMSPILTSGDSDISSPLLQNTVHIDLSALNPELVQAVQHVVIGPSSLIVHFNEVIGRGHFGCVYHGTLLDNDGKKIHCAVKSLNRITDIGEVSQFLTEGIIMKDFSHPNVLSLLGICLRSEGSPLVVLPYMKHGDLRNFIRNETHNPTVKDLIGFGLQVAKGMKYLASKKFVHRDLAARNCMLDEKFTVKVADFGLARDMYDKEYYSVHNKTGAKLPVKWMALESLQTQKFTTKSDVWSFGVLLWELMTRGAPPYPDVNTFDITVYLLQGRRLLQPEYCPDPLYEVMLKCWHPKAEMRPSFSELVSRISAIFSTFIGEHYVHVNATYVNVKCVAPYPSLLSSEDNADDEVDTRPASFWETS

With `N#CC1=C(C(F)F)NC(C(F)F)=C(C#N)C1c1cc2c(N)nccc2o1` [Example 18], the IC50 was determined as 1030 nM.

One may read the IC50 as the midpoint of a concentration-inhibition curve.
